# According to paper PMC5746216, “CYP51 is an essential drug target for the treatment of primary amoebic meningoencephalitis (PAM)” (PLoS Neglected Tropical Diseases, 2017):
# Experiments:
# [1] = target: T1, sterol 14-demethylase (NfCYP51) (Naegleria fowleri, UniProt A0A2H4A2U9); test: co-crystal structure at […] Å; UV-vis type II titration; type: binding
# T1 construct: gene NF0102700; 34 N-terminal membrane anchoring residues replaced with MAKKTSSKGKL
# T1 sequence (A0A2H4A2U9 12-460): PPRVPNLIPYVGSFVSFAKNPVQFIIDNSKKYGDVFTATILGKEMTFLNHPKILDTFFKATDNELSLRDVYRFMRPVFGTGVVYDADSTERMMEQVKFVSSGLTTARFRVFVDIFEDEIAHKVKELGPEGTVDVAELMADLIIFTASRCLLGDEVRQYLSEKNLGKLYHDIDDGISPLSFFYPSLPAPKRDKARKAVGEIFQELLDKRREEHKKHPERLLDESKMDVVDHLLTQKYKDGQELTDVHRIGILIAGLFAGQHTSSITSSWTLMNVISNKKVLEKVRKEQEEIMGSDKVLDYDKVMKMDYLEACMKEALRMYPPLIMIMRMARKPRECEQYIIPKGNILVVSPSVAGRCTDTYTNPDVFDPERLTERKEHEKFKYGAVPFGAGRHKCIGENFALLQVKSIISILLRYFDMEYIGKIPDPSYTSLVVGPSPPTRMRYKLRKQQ
# [2] = target: T1, sterol 14-demethylase (NfCYP51); test: UV-vis spectral binding titration (type I difference spectrum)
SMILES,co-crystal structure at 2.70 Å; UV-vis type II titration [1],Kd [2]
OC(Cn1cncn1)(Cn1cncn1)c1ccc(F)cc1F [Fluconazole],"fluconazole, binds NfCYP51 with affinity roughly an order of magnitude exceeding that of natural substrate, 31-norlanosterol",
"CC(C)=CCC[C@@H](C)[C@H]1CC[C@@]2(C)C3=C(CC[C@]12C)[C@@]1(C)CC[C@H](O)[C@@H](C)[C@@H]1CC3 [compound 14, 31-Norlanosterol]",,124 ± 25 nM
